What was measured:
[1] = Lipophilicity determination by RP-HPLC (log k, log D); assay type: physicochemical; conditions: for log k: MeOH 72%/H2O 28%; for log D6.5: MeOH 72%/acetate buffered saline pH 6.5; for log D7.4: MeOH 72%/acetate buffered saline pH 7.4
Description: In addition to the mentioned ADME profile, it is responsible for interactions with biological targets. Lipophilicity is recognized as one of the most important parameters influencing ADME and bioactivity and is also part, e.g., of Lipinski’s Rule of Five (Ro5). This thermodynamic parameter describing the molecule’s affinity for an aqueous or relatively lipophilic environment can be characterized by the logarithm of the partition coefficient (log P). In this study, lipophilicity was measured by reversed-phase high-performance liquid chromatography (RP-HPLC) under isocratic conditions with methanol as the organic modifier in the aqueous mobile phase and the logarithm of the capacity factor k was calculated, which is used as the lipophilicity index converted to the log P scale. In addition to the log k values, the logarithm of the distribution coefficient DpH at pH 6.5 and 7.4 was determined to clarify the behavior of the compounds under physiological conditions and possible ionization. Instead of water, a buffer of suitable pH was used as part of the mobile phase. In addition to the above-mentioned experimental methods, commercially available ChemBioDraw Ultra 13.0 and ACD/Percepta ver. 2012 programs were used to calculate the lipophilicity values of all prepared compounds.
A HPLC separation module Waters Alliance 2695 XE equipped with a Waters Dual Absorbance Detector 2486 (Waters Corp., Milford, MA, USA) was used. A chromatographic column Symmetry® C18 5 μm, 4.6 × 250 mm, Part No. W21751W016 (Waters Corp., Milford, MA, USA) was used. The HPLC separation process was monitored by Empower® 3 Chromatography Manager Software (Waters Corp.). Isocratic elution by a mixture of MeOH p.a. (72%) and H2O-HPLC Mili-Q grade (28%) as a mobile phase was used for the determination of capacity factor k. Isocratic elution by a mixture of MeOH p.a. (72%) and acetate buffered saline (pH 7.4 and pH 6.5) (28%) as a mobile phase was used for the determination of distribution coefficient expressed as D7.4 and D6.5. The total flow of the column was 1.0 mL/min, injection 20 μL, column temperature 40 °C, and sample temperature 10 °C. The detection wavelength of 210 nm was chosen. A KI methanolic solution was used for the determination of the dead times (tD). Retention times (tR) were measured in minutes. The capacity factors k were calculated according to the formula k = (tR − tD)/tD, where tR is the retention time of the solute, and tD is the dead time obtained using an unretained analyte. The distribution coefficients DpH were calculated according to the formula DpH = (tR − tD)/tD. Each experiment was repeated three times.

THP-1 cells = assay: Cell death assay by flow cytometry (Annexin V / LIVE/DEAD); assay type: cell-based, human; conditions: serum-free medium, 24 h
Description: Subsequently, compounds 2k and 2q were selected for analysis by flow cytometry and cytotoxic effects were detected after treatment of cells by 2k and 2q in serum-free medium at two selected concentrations, 1.0 µM and 0.5 µM, respectively. […] Moreover, 2k increased the number of dead cells (20%) (Figure 2). […] Thus, it can be assumed that 2k attenuates cell metabolism.
Annexin V eFluor450 (Invitrogene, Waltham, MA, USA) with LIVE/DEAD Fixable Far Red Dead Cell Stain Kit (Invitrogene) were used for the analysis of cell death. THP-1 cells resuspended in serum-free medium and treated by two selected drugs, such as 2q and 2k, by IC50 concentrations, 0.5 µM and 1.0 µM, respectively, for 24 h. Cells were double-stained by AnnexinV eFluor 450 (1:20) and LIVE/DEAD Fixable Far Red (3:1000). Finally, the cells were analysed by flow cytometer (Amnis CellStream; Luminex, Austin, TX, USA) and the data were evaluated by CellStream Analysis 1.2.55 software. The dot plots were divided into four quadrants. Live cells (low left quadrant), apoptosis (upper-left quadrant) and necrosis as a terminal stage of cell death (upper-right quadrant) were distinguished. Experiments were performed in duplicates and in three independent repetitions.

SMILES: O=C(/C=C/c1ccc(Cl)cc1)Nc1cc(C(F)(F)F)cc(C(F)(F)F)c1 [1q, (2E)-N-[3,5-bis(Trifluoromethyl)phenyl]-3-(4-chlorophenyl)prop-2-enamide]
- log k [1]: 1.3064
- log D6.5 [1]: 1.2925
- log D7.4 [1]: 1.2980

SMILES: O=C(/C=C/c1ccc(Cl)c(Cl)c1)Nc1cccc(C(F)(F)F)c1 [2i, (2E)-3-(3,4-Dichlorophenyl)-N-[3-(trifluoromethyl)phenyl]prop-2-enamide]
- log k [1]: 0.9873
- log D6.5 [1]: 0.9915
- log D7.4 [1]: 0.9505

SMILES: O=C(/C=C/c1ccc(Cl)c(Cl)c1)Nc1ccc(OC(F)(F)F)cc1 [2k, (2E)-3-(3,4-Dichlorophenyl)-N-[4-(trifluoromethoxy)phenyl]prop-2-enamide]
- log k [1]: 1.0513
- log D6.5 [1]: 1.0544
- log D7.4 [1]: 1.0053
- number of dead cells (THP-1 cells; 2k 1.0 µM): 20%

SMILES: O=C(/C=C/c1ccc(Cl)cc1)Nc1cc(Cl)cc(Cl)c1 [1p, (2E)-3-(4-Chlorophenyl)-N-(3,5-dichlorophenyl)prop-2-enamide]
- log k [1]: 1.1899
- log D6.5 [1]: 1.1368
- log D7.4 [1]: 1.1366

SMILES: O=C(/C=C/c1ccc(Cl)cc1)Nc1cccc(C(F)(F)F)c1 [1i, (2E)-3-(4-Chlorophenyl)-N-[3-(trifluoromethyl)phenyl]prop-2-enamide]
- log k [1]: 0.8612
- log D6.5 [1]: 0.8071
- log D7.4 [1]: 0.8105

SMILES: O=C(/C=C/c1ccc(Cl)c(Cl)c1)Nc1ccc(C(F)(F)F)cc1 [2j, (2E)-3-(3,4-Dichlorophenyl)-N-[4-(trifluoromethyl)phenyl]prop-2-enamide]
- log k [1]: 1.0364
- log D6.5 [1]: 1.0370
- log D7.4 [1]: 0.9945

SMILES: O=C(/C=C/c1ccc(Cl)c(Cl)c1)Nc1ccccc1 [2a, (2E)-3-(3,4-Dichlorophenyl)-N-phenylprop-2-enamide]
- log k [1]: 0.6199
- log D6.5 [1]: 0.6669
- log D7.4 [1]: 0.6354

SMILES: O=C(/C=C/c1ccc(Cl)c(Cl)c1)Nc1cc(C(F)(F)F)cc(C(F)(F)F)c1 [2q, (2E)-N-[3,5-bis(Trifluoromethyl)phenyl]-3-(3,4-dichlorophenyl)prop-2-enamide]
- log k [1]: 1.4731
- log D6.5 [1]: 1.4967
- log D7.4 [1]: 1.4717
- apoptosis (in words) (THP-1 cells; 2q 0.5 µM): not observed
- necrosis (in words) (THP-1 cells; 2q 0.5 µM): significantly induced
